Source: PubChem BioAssay AID2060601 (Molecular Pharmacology Branch, DTP, NCI, 2025)
Values joined by “and” are separate entries in the source; they are usually repeats but may differ in a detail not shown here. Equal values may be shown once.

Test system: 874868-142-R-J2-PDC complex spheroids, growth % test/control
Test: Anticancer human tumor 874868-142-R-J2-PDC patient-derived head and neck squamous carcinoma cell line growth inhibition [CLK]
Details: for viability, T/C: stronger effect = lower value
Summary of the method: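 Patient-derived tumor cells grown as complex spheroids with HUVEC endothelial cells and mesenchymal stem cells, treated with drug combinations. Concentrations descend in half-log steps from near clinical Cmax, or from 10 microM if Cmax unknown.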

[1] = curve of first compound, second compound 0.0316 µM
[2] = curve of first compound, second compound 0.1 µM
[3] = curve of first compound, second compound 0.316 µM
[4] = curve of first compound, second compound 1 µM
[5] = curve of first compound, second compound 3.16 µM
[6] = curve of first compound, second compound 10 µM
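Further: spheroids exposed to the compounds for 7 days.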
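Wherever viability, T/C is given: 100% = DMSO vehicle control viability.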

C=C(F)C(=O)N1CCN(c2nc(OCC3CCCN3C)nc3c2CCN(c2cccc4cccc(Cl)c24)C3)CC1CC#N (stereo unspecified)
viability, T/C (compound 0.0316 µM): 81.4% and 94.5%
viability, T/C (compound 0.1 µM): 95.2% and 103%
viability, T/C (compound 0.316 µM): 76.2% and 82.3%
viability, T/C (compound 1 µM): 68.4% and 87.2%
viability, T/C (compound 3.16 µM): 53.2% and 64.6%
viability, T/C (compound 10 µM): 1.63% and 4.44%
IC50 (curve of compound): 3200 nM and 4140 nM

CC1COCCN1c1cc(C2(S(C)(=N)=O)CC2)nc(-c2ccnc3[nH]ccc23)n1 (stereo unspecified) + CN1CCN(c2cc(C(=O)Nc3cc4cc(-c5cnn(C)c5)ccc4cn3)ccn2)CC1
IC50 [1]: 1900 nM
IC50 [2]: 578 nM
IC50 [3]: < 31.6 nM
IC50 [4]: < 31.6 nM
IC50 [5]: < 31.6 nM
IC50 [6]: < 31.6 nM
viability, T/C (second compound 0.0316 µM, first compound 0.0316 µM): 87.7%
viability, T/C (second compound 0.0316 µM, first compound 0.1 µM): 82.5%
viability, T/C (second compound 0.0316 µM, first compound 0.316 µM): 71.3%
viability, T/C (second compound 0.0316 µM, first compound 1 µM): 73.5%
viability, T/C (second compound 0.0316 µM, first compound 3.16 µM): 31.2%
viability, T/C (second compound 0.0316 µM, first compound 10 µM): 27.6%
viability, T/C (second compound 0.1 µM, first compound 0.0316 µM): 68.9%
viability, T/C (second compound 0.1 µM, first compound 0.1 µM): 60.9%
viability, T/C (second compound 0.1 µM, first compound 0.316 µM): 59.3%
viability, T/C (second compound 0.1 µM, first compound 1 µM): 42%
viability, T/C (second compound 0.1 µM, first compound 3.16 µM): 20.8%
viability, T/C (second compound 0.1 µM, first compound 10 µM): 20.9%
viability, T/C (second compound 0.316 µM, first compound 0.0316 µM): 16.6%
viability, T/C (second compound 0.316 µM, first compound 0.1 µM): 19.8%
viability, T/C (second compound 0.316 µM, first compound 0.316 µM): 18.4%
viability, T/C (second compound 0.316 µM, first compound 1 µM): 10.8%
viability, T/C (second compound 0.316 µM, first compound 3.16 µM): 13.7%
viability, T/C (second compound 0.316 µM, first compound 10 µM): 7.51%
viability, T/C (second compound 1 µM, first compound 0.0316 µM): 0.41%
viability, T/C (second compound 1 µM, first compound 0.1 µM): 0.3%
viability, T/C (second compound 1 µM, first compound 0.316 µM): 0.49%
viability, T/C (second compound 1 µM, first compound 1 µM): 0.28%
viability, T/C (second compound 1 µM, first compound 3.16 µM): 0.29%
viability, T/C (second compound 1 µM, first compound 10 µM): 0.24%
viability, T/C (second compound 3.16 µM, first compound 0.0316 µM): 0.19%
viability, T/C (second compound 3.16 µM, first compound 0.1 µM): 0.25%
viability, T/C (second compound 3.16 µM, first compound 0.316 µM): 0.22%
viability, T/C (second compound 3.16 µM, first compound 1 µM): 0.29%
viability, T/C (second compound 3.16 µM, first compound 3.16 µM): 1.32%
viability, T/C (second compound 3.16 µM, first compound 10 µM): 0.36%
viability, T/C (second compound 10 µM, first compound 0.0316 µM): 5.76%
viability, T/C (second compound 10 µM, first compound 0.1 µM): 0.21%
viability, T/C (second compound 10 µM, first compound 0.316 µM): 1.83%
viability, T/C (second compound 10 µM, first compound 1 µM): 0.21%
viability, T/C (second compound 10 µM, first compound 3.16 µM): 0.21%
viability, T/C (second compound 10 µM, first compound 10 µM): 0.23%

C=CC(=O)Nc1cc(Nc2nccc(-c3cn(C)c4ccccc34)n2)c(OC)cc1N(C)CCN(C)C + CNC(=O)c1ccc(Nc2nc(OC3CCCC3)c3c(-c4ccc5nc(C)oc5c4)c[nH]c3n2)c(OC)c1
IC50 [1]: 35.9 nM
IC50 [2]: 22.2 nM
IC50 [3]: 4.75 nM
IC50 [4]: < 0.949 nM
IC50 [5]: < 0.949 nM
IC50 [6]: < 0.949 nM
viability, T/C (second compound 0.0316 µM, first compound 0.000949 µM): 101%
viability, T/C (second compound 0.0316 µM, first compound 0.003 µM): 115%
viability, T/C (second compound 0.0316 µM, first compound 0.00949 µM): 77.4%
viability, T/C (second compound 0.0316 µM, first compound 0.03 µM): 51.3%
viability, T/C (second compound 0.0316 µM, first compound 0.0949 µM): 45.7%
viability, T/C (second compound 0.0316 µM, first compound 0.3 µM): 23.9%
viability, T/C (second compound 0.1 µM, first compound 0.000949 µM): 103%
viability, T/C (second compound 0.1 µM, first compound 0.003 µM): 75%
viability, T/C (second compound 0.1 µM, first compound 0.00949 µM): 57.5%
viability, T/C (second compound 0.1 µM, first compound 0.03 µM): 52.4%
viability, T/C (second compound 0.1 µM, first compound 0.0949 µM): 30.6%
viability, T/C (second compound 0.1 µM, first compound 0.3 µM): 19.8%
viability, T/C (second compound 0.316 µM, first compound 0.000949 µM): 64.4%
viability, T/C (second compound 0.316 µM, first compound 0.003 µM): 48.9%
viability, T/C (second compound 0.316 µM, first compound 0.00949 µM): 48%
viability, T/C (second compound 0.316 µM, first compound 0.03 µM): 38.5%
viability, T/C (second compound 0.316 µM, first compound 0.0949 µM): 24.8%
viability, T/C (second compound 0.316 µM, first compound 0.3 µM): 24.3%
viability, T/C (second compound 1 µM, first compound 0.000949 µM): 48.9%
viability, T/C (second compound 1 µM, first compound 0.003 µM): 40.5%
viability, T/C (second compound 1 µM, first compound 0.00949 µM): 38.6%
viability, T/C (second compound 1 µM, first compound 0.03 µM): 32.5%
viability, T/C (second compound 1 µM, first compound 0.0949 µM): 26.4%
viability, T/C (second compound 1 µM, first compound 0.3 µM): 14.4%
viability, T/C (second compound 3.16 µM, first compound 0.000949 µM): 43.4%
viability, T/C (second compound 3.16 µM, first compound 0.003 µM): 39.6%
viability, T/C (second compound 3.16 µM, first compound 0.00949 µM): 38%
viability, T/C (second compound 3.16 µM, first compound 0.03 µM): 31.5%
viability, T/C (second compound 3.16 µM, first compound 0.0949 µM): 25.5%
viability, T/C (second compound 3.16 µM, first compound 0.3 µM): 20%
viability, T/C (second compound 10 µM, first compound 0.000949 µM): 41.8%
viability, T/C (second compound 10 µM, first compound 0.003 µM): 37.7%
viability, T/C (second compound 10 µM, first compound 0.00949 µM): 32.7%
viability, T/C (second compound 10 µM, first compound 0.03 µM): 32.3%
viability, T/C (second compound 10 µM, first compound 0.0949 µM): 28%
viability, T/C (second compound 10 µM, first compound 0.3 µM): 18.3%
